Assay [1] deals with T1, Polyadenylate-binding protein 1 (Homo sapiens, UniProt P11940). Description: PABP1 MLLE–PAM2 interaction inhibitors, dose response, miRNA deadenylation inhibitor project, biochemical, fluorescence polarization, Cy5-PAM2 peptide, secondary (AID 602260). The assay is classed as functional. The following applies: read-out: IC50_Mean. (In general: Fluorescence polarisation rises when a labelled molecule tumbles more slowly, as on binding a larger partner.)

Assay [2] concerns the target T1, Polyadenylate-binding protein 1. Nature of the assay: PABP1 MLLE–PAM2 binding inhibitor potency, dose response, biochemical, fluorescence polarization, FITC-PAM2 peptide (AID 602259). It counts as functional. The note with it: read-out: IC50_Mean.
Assay [3] relates to Streptococcus sp. 'group A'. Description: growth inhibition of control SK(-) GAS strain, dose response, counter-screen for streptokinase expression inhibitor project, luminescence, kanamycin, BacTiterGlo, confirmation (AID 1900). It counts as functional, organism-based. (A counterscreen serves to expose hits that act by an unwanted route or on another target.)
A further assay relates to Streptococcus. Nature of the assay: Group A Streptococcus viability loss, dose response, counter-screen for streptokinase expression inhibitor project, luminescence, BacTiterGlo (AID 1915).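 Also: potency for reduction of bacterial viability or growth.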 The assay is classed as functional, organism-based.
The target of the next assay is T2, Aminopeptidase N (Plasmodium falciparum FcB1/Columbia, UniProt O96935).
T2 sequence (O96935 whole entry): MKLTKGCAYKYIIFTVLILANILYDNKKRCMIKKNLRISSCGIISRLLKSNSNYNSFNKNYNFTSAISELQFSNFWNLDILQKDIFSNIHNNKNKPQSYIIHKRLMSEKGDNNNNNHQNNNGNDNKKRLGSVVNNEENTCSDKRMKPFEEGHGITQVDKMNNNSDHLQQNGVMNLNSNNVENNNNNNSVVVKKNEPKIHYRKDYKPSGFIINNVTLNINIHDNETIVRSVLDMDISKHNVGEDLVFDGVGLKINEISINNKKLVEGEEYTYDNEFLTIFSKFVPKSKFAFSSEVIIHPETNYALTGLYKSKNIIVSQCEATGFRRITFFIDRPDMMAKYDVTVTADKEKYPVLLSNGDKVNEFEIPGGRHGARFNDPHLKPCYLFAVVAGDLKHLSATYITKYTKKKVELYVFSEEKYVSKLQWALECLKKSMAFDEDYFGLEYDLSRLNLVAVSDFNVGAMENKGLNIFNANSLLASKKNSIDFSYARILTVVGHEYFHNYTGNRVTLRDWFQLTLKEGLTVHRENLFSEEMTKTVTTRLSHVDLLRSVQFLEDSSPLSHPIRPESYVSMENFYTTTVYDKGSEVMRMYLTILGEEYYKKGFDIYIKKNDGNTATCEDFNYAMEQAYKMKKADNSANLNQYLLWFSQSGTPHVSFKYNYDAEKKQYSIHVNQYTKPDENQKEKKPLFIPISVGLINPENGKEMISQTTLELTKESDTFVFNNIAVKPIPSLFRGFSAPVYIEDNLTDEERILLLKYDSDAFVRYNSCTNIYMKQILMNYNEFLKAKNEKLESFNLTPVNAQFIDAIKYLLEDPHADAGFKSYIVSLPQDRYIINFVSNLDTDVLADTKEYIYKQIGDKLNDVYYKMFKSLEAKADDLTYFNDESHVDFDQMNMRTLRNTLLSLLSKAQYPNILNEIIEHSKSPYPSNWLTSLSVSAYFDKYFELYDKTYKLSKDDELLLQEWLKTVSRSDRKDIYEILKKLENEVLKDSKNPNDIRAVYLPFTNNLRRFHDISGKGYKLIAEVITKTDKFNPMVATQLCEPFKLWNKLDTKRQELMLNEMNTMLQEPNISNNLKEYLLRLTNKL
Description: P. falciparum M1AAP inhibitors, biochemical, fluorogenic H-Leu-NHMec substrate, 1536-well (AID 1445). Also noted: species or system Plasmodium falciparum 3D7, 3D7.

In assay [4] the target is T3, Heat shock factor protein 1 (Mus musculus, UniProt P38532).
T3 sequence (P38532 whole entry): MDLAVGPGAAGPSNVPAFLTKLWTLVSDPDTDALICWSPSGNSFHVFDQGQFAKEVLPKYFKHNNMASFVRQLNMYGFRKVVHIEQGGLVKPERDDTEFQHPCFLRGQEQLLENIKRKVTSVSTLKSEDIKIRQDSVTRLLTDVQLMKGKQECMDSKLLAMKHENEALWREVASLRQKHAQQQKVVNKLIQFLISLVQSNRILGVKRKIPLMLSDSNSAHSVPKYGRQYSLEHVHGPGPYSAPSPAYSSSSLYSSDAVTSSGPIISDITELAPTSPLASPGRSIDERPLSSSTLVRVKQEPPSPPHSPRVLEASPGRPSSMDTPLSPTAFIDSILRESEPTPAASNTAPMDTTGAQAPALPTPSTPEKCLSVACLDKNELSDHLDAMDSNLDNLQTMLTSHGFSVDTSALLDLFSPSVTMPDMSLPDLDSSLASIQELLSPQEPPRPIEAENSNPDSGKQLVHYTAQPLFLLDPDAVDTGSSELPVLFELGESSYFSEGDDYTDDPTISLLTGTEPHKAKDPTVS
Nature of the assay: HSF1 potentiators in luciferase reporter cells, confirmation, cell-based, NIH3T3, luminescence, dose retest (AID 435004).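 Also: stress induced by proteasome inhibitor MG132 added 30 min after compound; luciferase reporter driven by HSF1 response element in NIH3T3 cells; actives raise luminescence as potentiators of the MG132 stress response.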 It counts as functional. On the technique in general: A reporter such as luciferase makes a cellular process visible.

Assay [5] can be described thus: Luminescence Cell-Based Dose Retest to Confirm Inhibitors of Cancer Stem Cells. [Related pubchem assays (depositor defined):AID2717, AID2721]. The assay is classed as functional. The following applies: Homo sapiens.
The test system of another assay is INS1. Description: beta cell apoptosis inhibitors, cytokine rescue, dose response, luminescence, retest (AID 449756).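 Also: cell death triggered by IL-1 beta plus TNF-alpha plus IFN-gamma mixture; protective hits raise ATP signal compared with cytokine alone wells.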 The following applies: Rattus norvegicus. The assay is classed as functional, cell-based.
A short description of assay [6]: growth suppression of PTEN-null colon cells, dose response, cell-based, HCT116 PTEN knockout (AID 1047).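 Also: HCT116 colon tumor cells with PTEN knocked out; cells exposed to compound for 60 hours before readout; potency for loss of cell viability measured by luminescence.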 The assay is classed as functional.
A further assay concerns the target T4, Estrogen receptor (Homo sapiens, UniProt P03372).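 Also: potency for inhibiting coactivator peptide recruitment to the receptor.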
T4 sequence (P03372 whole entry): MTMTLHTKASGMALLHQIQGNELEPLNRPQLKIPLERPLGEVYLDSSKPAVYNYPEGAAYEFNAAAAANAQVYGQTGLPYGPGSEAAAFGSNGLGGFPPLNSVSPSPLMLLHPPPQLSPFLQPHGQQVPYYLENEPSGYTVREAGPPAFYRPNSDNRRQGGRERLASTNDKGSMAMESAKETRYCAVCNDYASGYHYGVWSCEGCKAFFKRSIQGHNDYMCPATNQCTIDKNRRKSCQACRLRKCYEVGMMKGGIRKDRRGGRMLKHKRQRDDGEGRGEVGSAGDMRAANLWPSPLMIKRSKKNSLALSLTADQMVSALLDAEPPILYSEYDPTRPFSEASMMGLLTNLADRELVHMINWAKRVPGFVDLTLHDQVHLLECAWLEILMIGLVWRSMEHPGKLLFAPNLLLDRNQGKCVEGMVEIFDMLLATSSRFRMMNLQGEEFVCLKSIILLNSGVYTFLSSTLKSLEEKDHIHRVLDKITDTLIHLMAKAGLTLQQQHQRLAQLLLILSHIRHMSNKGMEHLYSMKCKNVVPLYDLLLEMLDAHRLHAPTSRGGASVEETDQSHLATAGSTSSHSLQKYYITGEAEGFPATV

Assay [7] is described as follows: growth suppression of beta-catenin-knockout colon cells, dose response, cell-based, HCT116, human colon tumor (AID 1045).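 Also: HCT116 colon tumor cells with beta catenin knocked out; cells exposed to compound for 60 hours.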 The assay is classed as functional.
Assay [8] deals with T5, Fatty acid synthase (Homo sapiens, UniProt P49327). Description: FAS thioesterase domain inhibitors, dose response, biochemical, endpoint fluorescence intensity, uHTS hits (AID 624327).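 Also: fluorescence from hydrolysis of an O-methyl fluorescein acyl ester substrate by the enzyme.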 The assay is classed as functional.
For assay [9], the target named is T5, Fatty acid synthase. Description: FAS thioesterase domain inhibitors, dose response, biochemical, kinetic fluorescence intensity (AID 624326).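 Also: rate of fluorescence rise from hydrolysis of a fluorogenic O-methyl fluorescein ester substrate.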 The assay is classed as functional.
In the next assay the target is T6, Streptokinase A (Streptococcus pyogenes serotype M1, UniProt P10520).
T6 sequence (P10520 whole entry): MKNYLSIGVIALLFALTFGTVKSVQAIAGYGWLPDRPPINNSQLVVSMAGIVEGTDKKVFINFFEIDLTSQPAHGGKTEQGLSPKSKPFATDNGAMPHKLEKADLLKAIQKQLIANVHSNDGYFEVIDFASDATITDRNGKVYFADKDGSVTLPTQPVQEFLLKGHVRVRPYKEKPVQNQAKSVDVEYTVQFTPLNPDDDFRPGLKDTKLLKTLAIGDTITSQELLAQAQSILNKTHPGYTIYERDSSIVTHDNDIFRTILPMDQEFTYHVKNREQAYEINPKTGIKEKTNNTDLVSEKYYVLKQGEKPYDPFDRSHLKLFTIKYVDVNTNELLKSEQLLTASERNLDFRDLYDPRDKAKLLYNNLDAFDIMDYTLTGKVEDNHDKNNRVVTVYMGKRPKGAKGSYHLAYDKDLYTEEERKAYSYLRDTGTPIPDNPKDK
Nature of the assay: S. pyogenes streptokinase expression inhibitors, potency, dose response, plasminogen activation absorbance, OD405 (AID 1914).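 Also: secreted streptokinase activity via plasminogen activation per viability signal from cell pellet.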 The assay is classed as functional, Streptococcus pyogenes M1 GAS.

SMILES strings stand for the structures. Activity calls are given as the source filed them.

T1 sequence (P11940 whole entry): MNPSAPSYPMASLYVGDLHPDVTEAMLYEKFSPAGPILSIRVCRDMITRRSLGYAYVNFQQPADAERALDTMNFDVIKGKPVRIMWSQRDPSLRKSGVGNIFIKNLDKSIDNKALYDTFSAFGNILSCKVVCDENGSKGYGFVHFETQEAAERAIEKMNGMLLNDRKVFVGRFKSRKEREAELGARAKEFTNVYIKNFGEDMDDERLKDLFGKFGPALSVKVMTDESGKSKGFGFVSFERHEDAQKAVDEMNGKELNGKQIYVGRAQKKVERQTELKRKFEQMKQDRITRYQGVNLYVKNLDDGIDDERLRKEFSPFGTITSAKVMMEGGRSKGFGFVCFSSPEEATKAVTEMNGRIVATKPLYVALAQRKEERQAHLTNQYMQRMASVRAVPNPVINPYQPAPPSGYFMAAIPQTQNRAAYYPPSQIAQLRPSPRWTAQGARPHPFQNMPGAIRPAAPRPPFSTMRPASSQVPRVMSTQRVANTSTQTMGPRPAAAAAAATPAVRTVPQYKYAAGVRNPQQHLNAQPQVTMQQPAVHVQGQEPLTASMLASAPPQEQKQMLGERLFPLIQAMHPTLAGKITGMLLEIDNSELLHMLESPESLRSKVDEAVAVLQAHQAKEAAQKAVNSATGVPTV
T5 sequence (P49327 whole entry, the tested form may be a part): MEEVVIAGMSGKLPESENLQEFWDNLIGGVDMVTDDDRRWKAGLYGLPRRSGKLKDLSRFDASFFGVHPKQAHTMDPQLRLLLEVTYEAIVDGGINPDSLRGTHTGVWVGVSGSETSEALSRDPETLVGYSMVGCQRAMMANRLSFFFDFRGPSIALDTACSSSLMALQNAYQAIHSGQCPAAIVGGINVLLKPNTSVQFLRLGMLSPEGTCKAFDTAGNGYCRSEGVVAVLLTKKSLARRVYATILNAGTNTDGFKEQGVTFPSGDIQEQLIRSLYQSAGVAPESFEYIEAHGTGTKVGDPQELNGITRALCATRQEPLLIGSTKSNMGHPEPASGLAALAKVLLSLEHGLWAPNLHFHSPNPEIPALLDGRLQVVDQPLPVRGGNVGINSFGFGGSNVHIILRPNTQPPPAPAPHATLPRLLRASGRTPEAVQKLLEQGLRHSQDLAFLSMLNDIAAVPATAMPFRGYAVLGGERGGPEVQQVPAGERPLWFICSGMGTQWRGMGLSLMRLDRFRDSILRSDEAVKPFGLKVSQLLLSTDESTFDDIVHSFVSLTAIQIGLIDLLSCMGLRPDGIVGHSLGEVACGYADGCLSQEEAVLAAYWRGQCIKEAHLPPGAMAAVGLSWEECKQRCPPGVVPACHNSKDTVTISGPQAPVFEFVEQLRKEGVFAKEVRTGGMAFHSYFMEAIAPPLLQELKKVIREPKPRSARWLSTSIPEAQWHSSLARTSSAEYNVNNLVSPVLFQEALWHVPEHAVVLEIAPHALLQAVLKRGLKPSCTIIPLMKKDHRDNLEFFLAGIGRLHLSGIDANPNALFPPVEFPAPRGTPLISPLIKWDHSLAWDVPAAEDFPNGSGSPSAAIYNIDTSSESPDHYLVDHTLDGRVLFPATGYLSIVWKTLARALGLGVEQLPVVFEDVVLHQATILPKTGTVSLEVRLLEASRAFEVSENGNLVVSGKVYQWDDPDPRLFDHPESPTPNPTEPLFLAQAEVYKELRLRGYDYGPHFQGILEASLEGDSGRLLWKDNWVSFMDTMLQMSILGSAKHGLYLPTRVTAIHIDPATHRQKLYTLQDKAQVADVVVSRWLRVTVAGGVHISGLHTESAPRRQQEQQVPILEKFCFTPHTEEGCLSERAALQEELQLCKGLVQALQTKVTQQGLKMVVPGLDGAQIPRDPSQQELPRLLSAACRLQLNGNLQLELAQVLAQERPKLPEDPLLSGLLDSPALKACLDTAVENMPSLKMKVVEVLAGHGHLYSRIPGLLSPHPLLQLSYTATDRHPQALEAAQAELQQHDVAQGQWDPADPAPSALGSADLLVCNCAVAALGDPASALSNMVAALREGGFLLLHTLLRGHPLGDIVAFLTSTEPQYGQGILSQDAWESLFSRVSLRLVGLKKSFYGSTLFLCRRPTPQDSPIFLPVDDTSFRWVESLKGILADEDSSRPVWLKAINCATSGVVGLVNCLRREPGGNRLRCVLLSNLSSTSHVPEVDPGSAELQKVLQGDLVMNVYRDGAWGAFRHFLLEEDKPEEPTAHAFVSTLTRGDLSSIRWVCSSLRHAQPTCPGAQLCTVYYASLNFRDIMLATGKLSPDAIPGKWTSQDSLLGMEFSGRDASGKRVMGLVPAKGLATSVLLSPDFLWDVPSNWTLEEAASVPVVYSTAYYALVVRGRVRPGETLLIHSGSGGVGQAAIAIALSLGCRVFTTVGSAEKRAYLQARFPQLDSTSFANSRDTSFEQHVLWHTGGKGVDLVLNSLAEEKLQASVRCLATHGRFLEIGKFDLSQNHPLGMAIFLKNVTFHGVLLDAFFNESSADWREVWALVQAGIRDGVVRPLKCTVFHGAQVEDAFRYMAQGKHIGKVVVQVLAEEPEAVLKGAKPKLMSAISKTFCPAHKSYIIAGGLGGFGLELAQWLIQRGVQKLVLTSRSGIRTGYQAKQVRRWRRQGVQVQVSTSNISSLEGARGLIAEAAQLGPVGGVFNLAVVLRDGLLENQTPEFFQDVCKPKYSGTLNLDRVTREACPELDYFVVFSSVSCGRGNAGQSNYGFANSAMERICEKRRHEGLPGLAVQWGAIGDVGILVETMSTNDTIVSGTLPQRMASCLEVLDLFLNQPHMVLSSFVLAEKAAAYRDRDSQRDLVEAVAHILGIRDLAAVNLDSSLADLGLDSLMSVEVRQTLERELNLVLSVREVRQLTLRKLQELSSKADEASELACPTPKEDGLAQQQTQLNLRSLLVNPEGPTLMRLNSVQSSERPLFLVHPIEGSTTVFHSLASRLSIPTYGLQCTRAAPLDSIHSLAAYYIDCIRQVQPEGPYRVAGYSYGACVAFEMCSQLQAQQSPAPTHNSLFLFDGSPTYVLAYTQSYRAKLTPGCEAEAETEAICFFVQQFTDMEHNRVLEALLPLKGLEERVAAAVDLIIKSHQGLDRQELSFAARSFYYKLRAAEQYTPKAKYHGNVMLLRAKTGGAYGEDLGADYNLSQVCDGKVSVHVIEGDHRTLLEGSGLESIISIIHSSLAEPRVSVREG

Turning to `CC1=CC(=O)C=CC1=Nc1ccc(N(C)C)cc1`, the IC50 in assay [1] was 61.6 µM (inactive); in assay [2], > 66 µM (inactive). As for `CCCOc1ccc(C(=O)NNC(=S)NC(=O)c2cc(-c3ccc(Cl)cc3)nc3ccccc23)cc1`, the IC50 in assay [1] and in [2] was > 66 µM (inactive) in each case. Besides, the EC50 (in assay [3]; in the assay with Streptococcus) was < 0.06 µM (active) each time. For `CCOC(=O)N1CCN(C(=O)C(=O)NNC(=O)COc2ccc(Cl)cc2)CC1`, at Aminopeptidase N, the IC50 is 106 µM (active). Consider `Cc1ccc(CNC(=O)CSc2nc3ccsc3c(=O)n2NC(=O)c2ccccc2)cc1`, for which, on Aminopeptidase N, the IC50 was 11.1 µM (active). Turning to `COc1cc(OC)c(OC)cc1CN(C)CCc1ccccn1`, in assay [4], the EC50 (usually the concentration at which the effect is half-maximal) is > 260 µM (inactive). `O=C(NCc1ccc2c(c1)OCO2)C1CCCN(S(=O)(=O)c2cccnc2)C1` (stereo not given): on Aminopeptidase N, the IC50 is 70.7 µM (active).

For `O=S(=O)([N-]c1nc2ccccc2nc1-[n+]1ccc(Cc2ccccc2)cc1)c1ccc(Br)s1`, the values for the IC50 in assay [1] and in assay [2] were > 66 µM (inactive) and 52.3 µM (inactive), respectively. The AC50 (in general, the concentration at which the activity in the assay is half-maximal) is 6.23 µM (active) in assay [5] and 6.81 µM (active) in the assay on INS1.

As for `N#C/C(=C(\O)Nc1ccc(Cl)cc1)c1nc2ccccc2[nH]1`, the EC50 is 31.9 µM (active) in [6] and 35.1 µM (active) in assay [7]. The IC50 at Estrogen receptor was 27.1 µM (active). On to `Cc1cc(O)nc(-n2ncc(C#N)c2N)n1`, for which, in assay [4], the EC50 is > 260 µM (inactive). Take `O=C(/C=C/c1cccc([N+](=O)[O-])c1)NC(=S)Nc1ccc(CN2CCOCC2)cc1`: the IC50 in [1] and in [2] was > 66 µM (inactive) each time. Moreover, in assay [4], the EC50 was 14.6 µM (active). As to `O=C(O)/C(=C\c1ccc(-c2ccc(F)cc2)o1)c1ccccc1`, the IC50 on Aminopeptidase N is 51.4 µM (active). With `O=C(COC(=O)c1cc([N+](=O)[O-])ccc1N1CCOCC1)NCCc1ccccc1`, the IC50 is 1.98 µM (active) on Fatty acid synthase [8] and 2.6 µM (active) on Fatty acid synthase [9]. `CCN(CCCNC(=O)CCCN1C(=O)COc2ccc(C)cc21)c1cccc(C)c1`: the EC50 in assay [4] is > 260 µM (inactive). On to `Cc1ccc(NC(=O)c2cnn(-c3ccccc3)c2C)cc1`, for which the EC50 in [4] is > 260 µM (inconclusive). Consider `N#Cc1cc(Oc2ccc(Cl)cc2)c(N2CCOCC2)cc1C#N`, for which the IC50 at Fatty acid synthase [8] was 4.35 µM (active); on Fatty acid synthase [9] it was 4.83 µM (active). Regarding `COc1ccc(CN2CC(=O)N3[C@H]4c5ccccc5OC[C@@H]4[C@H](c4ccccc4)[C@]3(C)C2=O)cc1`, the IC50 in assay [1] and in assay [2] was > 66 µM (inactive) throughout. Turning to `O=[N+]([O-])c1cccc(CN2CC=C(c3ccc(F)cc3)CC2)c1`, the figures for the IC50 at Fatty acid synthase [8] and on Fatty acid synthase [9] were 11.4 µM (active) and 9.86 µM (active), respectively. Regarding `COc1cc2nc(CSc3nc(-c4ccc(F)cc4)cs3)nc(O)c2cc1OC`, the EC50 is > 150 µM (not active) on Streptokinase A, > 150 µM (not active) in [3], > 260 µM (inactive) in [4] and > 150 µM (not active) with Streptococcus.

With `COC(=O)Cn1c(=O)c2c(nc3n2CC(C)CN3CCc2ccccc2)n(C)c1=O` (stereo not given), the EC50 in [4] was > 260 µM (inactive). For `COc1cccc(-c2nc(=S)c3c(n2CCCO)CCCC3)c1`, the IC50 in [1] and in [2] was > 66 µM (inactive) in each case.

As for `CC1(C)c2cc(O)ccc2OC1N1CCOCC1` (stereo not given), the EC50 in assay [4] was > 260 µM (inactive).

`CN(C)CCc1nc2ccccc2c(=O)n1-c1ccccc1`: in [4], the EC50 was > 260 µM (inactive). Regarding `COc1ccc([N+](=O)[O-])cc1C(=O)NCCOc1ccc(Cl)cc1`, the IC50 is 5.95 µM (active) on Fatty acid synthase [8] and 7.34 µM (active) at Fatty acid synthase [9]. In the case of `O=C(OCC(=O)N1CCN(c2ccccc2)CC1)c1cccc([N+](=O)[O-])c1`, the IC50 is 7.7 µM (active) on Fatty acid synthase [8] and 11.9 µM (active) at Fatty acid synthase [9].
